# In patent publication US20230270723A1, “GLUCOKINASE ACTIVATOR FOR TREATING DIABETES WITH HEPATIC IMPAIRMENT” (HUA Medicine (Shanghai) Ltd., priority 2020, published 2023):
# Where two headings read alike, the source gives them in different places.
# Tests used:
# [1] = Safety evaluation (adverse events) after single oral dose of dorzagliatin 25 mg; type: in vivo, human
# Experimental: Safety Evaluation • Physical examination: Evaluated at screening, baseline, Day 2, Day 3, discharge examination on Day 4. • Vital signs: Evaluated at screening, baseline, 24 and 48 hours post-dose, discharge examination on Day 4. • 12-lead ECG: Evaluated at screening, baseline, 24 hours and 48 hours post-dose, discharge examination on Day 4. Test once at each time point. • Hematology, blood biochemistry and urinalysis: Evaluated at screening, baseline, 24 hours, 48 hours and 72 hours post-dose. • Adverse events (AEs): All the subjects are observed for any AEs occurring from the signing of the ICF to the end of study. The clinical manifestations, severity, occurrence time, end time (if applicable), treatment measure, outcome and other information of each AE are recorded, and the correlation between an AE and the study drugs is judged.
# [2] = Phase I single oral dose pharmacokinetic study of dorzagliatin in subjects with mild or moderate hepatic impairment and healthy subjects (plasma, LC-MS/MS, non-compartmental); type: in vivo, human; settings: for AUC(0-inf) / AUC(0-t) / Cmax / half-life / Vd/F / Tmax: both sexes, human, plasma, po, 25 mg; for Vd/F: read-out: Vz/F; for Tmax: median
# Experimental: This phase I study is to access the pharmacokinetics and safety of a single dose of dorzagliatin in subjects with mild or moderate hepatic impairment, and heathy subjects. […] The eligible subjects of Groups A and B are matched closely with the healthy subjects of Group C as to their sexes, ages (±5 yrs), and BMIs (±15%).
# on Day −2 or −1, eligible subjects are admitted to a clinical research center (CRC). […], the subjects have no additional food after a standard dinner for at least 10 h. In the morning of Day 1, the subjects each receive dorzagliatin (25 mg) orally with empty stomach. One hour later, the subjects have a standardized breakfast. Blood samples are collected at the following time points: within 60 min pre-dose; and at 0.25, 0.5, 1, 1.5, 2, 2.5, 3, 4, 6, 8, 12, 24, 36, 48, and 72 h post-dose. The samples are analyzed using LC-MS/MS. The plasma concentration-time data for dorzagliatin are analyzed using a non-compartmental model to obtain PK parameters, including Cmax, AUClast, and AUCinf. An ANOVA analysis is performed on the data between Group C and Groups A and B.
# Study design: This study was designed to evaluate the PK and safety of a single oral dose of dorzagliatin 25 mg in subjects with hepatic impairment compared with matched healthy subjects using an open label, single-center, parallel study design. The study population (as shown in Table 1) consisted of subjects with mild (group A) and moderate (group B) hepatic impairment and healthy subjects (group C) matched for sex, mean age, and mean BMI. The number of subjects who completed the study in each group was not less than 8, both male and female, and no less than 3 subjects of a single sex in each group.
# (§1) Eligible subjects were admitted to the Phase 1 study ward on either Day −2 or Day −1 to complete the baseline examination, and re-confirmed the inclusion/exclusion criteria by the investigator and fed a standardized meal after admission. Subjects were fasted at least 10 hours overnight while water was not deprived after the standardized dinner on Day −1, and received a single dose of dorzagliatin 25 mg (25 mg/tablet, 1 tablet) with 240 mL of warm water on the morning of Day 1. Subjects should start the standardized breakfast about 1 hour after administration and complete the meal within 30 minutes. Blood samples for PK and plasma protein binding (PPB) analyses were collected at specified time points within 1 hour pre-dose through 72 hours post-dose. The corresponding safety indicators at preset time points were detected for safety assessment.
# (§2) Pharmacokinetic Evaluation • PK blood sampling time: Within 1 hour pre-dose and 0.25, 0.5, 1, 1.5, 2, 2.5, 3, 4, 6, 8, 12, 24, 36, 48 and 72 hours post-dose of dorzagliatin on Day 1. • PPB blood sampling time: Within 1 hour pre-dose and 1 hour post-dose of dorzagliatin. • Bioanalytical method: dorzagliatin in plasma was analyzed using a validated method of liquid chromatography-tandem mass spectrometry (LC-MS/MS). • PK parameters. Primary PK endpoint: Cmax, AUClast, AUCinf; Secondary PK endpoint (if applicable): Cmax,u, AUClast,u, AUCinf,u, Tmax, T1/2, CL/F, Vz/F, fu.
# [3] = Plasma protein binding (PPB) analysis, free drug percentage (fu); type: in vitro ADME; settings: human, oral, 25 mg
# Experimental: as §1, §2
# [4] = moderate hepatic impairment group
# [5] = single oral dose 25 mg, healthy group, arithmetic mean
# [6] = single oral dose 25 mg, mild hepatic impairment group, arithmetic mean
# [7] = single oral dose 25 mg, moderate hepatic impairment group, arithmetic mean
structure (smiles),measurement,setting,value
"CC(C)C[C@@H](C(=O)Nc1ccn(C[C@@H](O)CO)n1)N1CC(Oc2ccccc2Cl)=CC1=O [dorzagliatin, (S)-2-(4-(2-chlorophenoxy)-2-oxo-2,5-dihydro-1H-pyrrol-1-yl)-N-(1-((R)-2,3-dihydroxypropyl)-1H-pyrazol-3-yl)-4-methylpentanamide]",number of AEs,[1]; all subjects,20
same,number of TEAEs,[1]; all subjects,18
same,number of TEAEs considered possibly related to the study drug,[1]; all subjects,10
same,subjects with TEAEs considered possibly related to the study drug,[1]; all subjects,25.0%
same,"SAEs, death, or significant TEAEs","[1]; all subjects, during the study","no SAEs, death, or significant TEAEs"
same,subjects who experienced TEAEs,"[1]; all subjects, mild in most cases",33.3%
same,subjects who experienced AEs,"[1]; all subjects, single oral dose 25 mg",33.3%
same,subjects who experienced AEs,[1]; healthy group,No subjects
same,number of AEs,[1]; mild hepatic impairment group,13
same,number of TEAEs considered possibly related to the study drug,[1]; mild hepatic impairment group,8
same,subjects who experienced AEs,[1]; mild hepatic impairment group,62.5%
same,subjects with TEAEs considered possibly related to the study drug,[1]; mild hepatic impairment group,50.0%
same,number of AEs,[1]; [4],7
same,number of TEAEs considered possibly related to the study drug,[1]; [4],2
same,subjects who experienced AEs,[1]; [4],37.5%
same,subjects with TEAEs considered possibly related to the study drug,[1]; [4],25.0%
same,safety and tolerability,"[1]; single oral dose, subjects with mild and moderate hepatic impairment",safe and well tolerated
same,AUC(0-inf),"[2]; free drug, single oral dose 25 mg, healthy group, arithmetic mean, read-out: AUCinf,u",123 ng·h/mL
same,AUC(0-t),"[2]; free drug, single oral dose 25 mg, healthy group, arithmetic mean, read-out: AUClast,u",122 ng·h/mL
same,AUC(0-inf),"[2]; free drug, single oral dose 25 mg, healthy group, read-out: AUCinf,u, geometric least squares mean",119 ng·h/mL
same,AUC(0-t),"[2]; free drug, single oral dose 25 mg, healthy group, read-out: AUClast,u, geometric least squares mean",118 ng·h/mL
same,AUC(0-inf),"[2]; free drug, single oral dose 25 mg, mild hepatic impairment group (N=7), arithmetic mean, read-out: AUCinf,u",170 ng·h/mL
same,AUC(0-t),"[2]; free drug, single oral dose 25 mg, mild hepatic impairment group (N=7), arithmetic mean, read-out: AUClast,u",169 ng·h/mL
same,AUC(0-inf),"[2]; free drug, single oral dose 25 mg, moderate hepatic impairment group, arithmetic mean, read-out: AUCinf,u",287 ng·h/mL
same,AUC(0-t),"[2]; free drug, single oral dose 25 mg, moderate hepatic impairment group, arithmetic mean, read-out: AUClast,u",284 ng·h/mL
same,AUC(0-inf),"[2]; free drug, single oral dose 25 mg, moderate hepatic impairment group, read-out: AUCinf,u, geometric least squares mean",282 ng·h/mL
same,AUC(0-t),"[2]; free drug, single oral dose 25 mg, moderate hepatic impairment group, read-out: AUClast,u, geometric least squares mean",280 ng·h/mL
same,Cmax,"[2]; single oral dose 25 mg, fasted, healthy group, arithmetic mean, read-out: Cmax",325 ng/mL
same,Cmax,"[2]; single oral dose 25 mg, fasted, mild hepatic impairment group (Child-Pugh 5-6), arithmetic mean, read-out: Cmax",382 ng/mL
same,Cmax,"[2]; single oral dose 25 mg, fasted, moderate hepatic impairment group (Child-Pugh 7-9), arithmetic mean, read-out: Cmax",370 ng/mL
same,half-life,[2]; [5],6.22 h
same,AUC(0-inf),"[2]; single oral dose 25 mg, healthy group, arithmetic mean, read-out: AUCinf",1910 ng·h/mL
same,AUC(0-t),"[2]; single oral dose 25 mg, healthy group, arithmetic mean, read-out: AUClast",1890 ng·h/mL
same,Vd/F,[2]; [5],122 L
same,Tmax,"[2]; single oral dose 25 mg, healthy group",1.75 h
same,AUC(0-inf),"[2]; single oral dose 25 mg, healthy group, read-out: AUCinf, geometric least squares mean",1870 ng·h/mL
same,AUC(0-t),"[2]; single oral dose 25 mg, healthy group, read-out: AUClast, geometric least squares mean",1840 ng·h/mL
same,Cmax,"[2]; single oral dose 25 mg, healthy group, read-out: Cmax, geometric least squares mean",307 ng/mL
same,half-life,[2]; [6],6.25 h
same,AUC(0-inf),"[2]; single oral dose 25 mg, mild hepatic impairment group, arithmetic mean, read-out: AUCinf",2260 ng·h/mL
same,AUC(0-t),"[2]; single oral dose 25 mg, mild hepatic impairment group, arithmetic mean, read-out: AUClast",2240 ng·h/mL
same,Vd/F,[2]; [6],106 L
same,Tmax,"[2]; single oral dose 25 mg, mild hepatic impairment group",1.5 h
same,AUC(0-inf),"[2]; single oral dose 25 mg, mild hepatic impairment group, read-out: AUCinf, geometric least squares mean",2190 ng·h/mL
same,AUC(0-t),"[2]; single oral dose 25 mg, mild hepatic impairment group, read-out: AUClast, geometric least squares mean",2170 ng·h/mL
same,Cmax,"[2]; single oral dose 25 mg, mild hepatic impairment group, read-out: Cmax, geometric least squares mean",370 ng/mL
same,half-life,[2]; [7],8.04 h
same,AUC(0-inf),"[2]; single oral dose 25 mg, moderate hepatic impairment group, arithmetic mean, read-out: AUCinf",3450 ng·h/mL
same,AUC(0-t),"[2]; single oral dose 25 mg, moderate hepatic impairment group, arithmetic mean, read-out: AUClast",3410 ng·h/mL
same,Vd/F,[2]; [7],85.2 L
same,AUC(0-t),"[2]; single oral dose 25 mg, moderate hepatic impairment group, mean, read-out: AUClast",3410 ng·h/mL
same,Tmax,"[2]; single oral dose 25 mg, moderate hepatic impairment group",1.5 h
same,AUC(0-inf),"[2]; single oral dose 25 mg, moderate hepatic impairment group, read-out: AUCinf, geometric least squares mean",3410 ng·h/mL
same,AUC(0-t),"[2]; single oral dose 25 mg, moderate hepatic impairment group, read-out: AUClast, geometric least squares mean",3370 ng·h/mL
same,Cmax,"[2]; single oral dose 25 mg, moderate hepatic impairment group, read-out: Cmax, geometric least squares mean",362 ng/mL
same,"Cmax,u, geometric least squares mean","[2]; free drug, single oral dose 25 mg, healthy group",19.7 ng/mL
same,"Cmax,u","[2]; free drug, single oral dose 25 mg, healthy group, arithmetic mean",21.0 ng/mL
same,"Cmax,u","[2]; free drug, single oral dose 25 mg, mild hepatic impairment group (N=7), arithmetic mean",28.8 ng/mL
same,"Cmax,u, geometric least squares mean","[2]; free drug, single oral dose 25 mg, moderate hepatic impairment group",30.0 ng/mL
same,"Cmax,u","[2]; free drug, single oral dose 25 mg, moderate hepatic impairment group, arithmetic mean",30.7 ng/mL
same,increase of geometric mean of AUCinf compared with healthy subjects,[2]; mild hepatic impairment group,~17%
same,increase of geometric mean of AUClast compared with healthy subjects,[2]; mild hepatic impairment group,approximately 18%
same,increase of geometric mean of Cmax compared with healthy subjects,[2]; mild hepatic impairment group,approximately 20%
same,effect of mild hepatic impairment on clearance and exposure level,[2]; mild hepatic impairment vs healthy subjects,no significant effect
same,increase of geometric mean of AUCinf compared with healthy subjects,[2]; [4],~83%
same,increase of geometric mean of AUClast compared with healthy subjects,[2]; [4],~83%
same,increase of geometric mean of Cmax compared with healthy subjects,[2]; [4],approximately 18%
same,increase of geometric mean of free AUCinf compared with the healthy group,[2]; [4],~137%
same,increase of geometric mean of free AUClast compared with the healthy group,[2]; [4],~137%
same,clearance and exposure level in moderate hepatic impairment,[2]; moderate hepatic impairment vs healthy subjects,the drug clearance was decreased and the exposure level was increased
same,increase of AUC of free drug compared with healthy subjects,"[2]; moderate hepatic impairment, conclusion, AUC not further specified",~137%
same,absorption after oral administration,[2]; single oral dose 25 mg,rapidly absorbed
same,CL/F,[2]; [5],13.7 L/h
same,CL/F,[2]; [6],11.8 L/h
same,CL/F,[2]; [7],7.43 L/h
same,fraction unbound,"[3]; free drug percentage in plasma, healthy group, arithmetic mean, read-out: fu",0.0646
same,fraction unbound,"[3]; free drug percentage in plasma, mild hepatic impairment group (N=7), arithmetic mean, read-out: fu",0.0719
same,fraction unbound,"[3]; free drug percentage in plasma, moderate hepatic impairment group, arithmetic mean, read-out: fu",0.0832
same,fraction unbound,"[3]; healthy group, read-out: free drug percentage (fu), geometric mean",0.0639
same,fraction unbound,"[3]; mild hepatic impairment group, read-out: free drug percentage (fu), geometric mean",0.0712
same,fraction unbound,"[3]; moderate hepatic impairment group, read-out: free drug percentage (fu), geometric mean",0.0829
